Values joined by “and” are separate entries in the source; they are usually repeats but may differ in a detail not shown here. Equal values may be shown once.
Test system: 519858-162-T-J1-PDC complex spheroid viability
Assay: Anticancer human tumor 519858-162-T-J1-PDC patient-derived colon adenocarcinoma cell line growth inhibition [GQUAD]
Details: for viability, T/C: stronger effect = lower value
Text: DNA G-quadruplex Stabilizer Agents in Combinations in Complex Spheroids
A high-throughput screen of multi-cell type tumor spheroids was designed to identify active combinations of DNA G-quadruplex stabilizer agents and targeted small molecules. Complex spheroids include a stromal component modeled by human endothelial cells (HUVEC) and fibroblasts modeled by human mesenchymal stem cells (MSCs). The concentration ranges selected for each drug and investigational agent were based upon clinically achievable concentrations if the clinical Cmax of the agent was known.
Compounds. The drugs and investigational agents: pidnarulex (CX-5461; NSC782164), APTO-253 (NSC789042), BRACO-19 (NSC847499), peposertib (NSC802822), ceralasertib (NSC780249), elimusertib (NSC800525), camonsertib (NSC841442), AZD-1390 (NSC803789), olaparib (NSC753686), talazoparib (NSC767125), ART-558 (NSC835418), sotorasib (NSC818433), MRTX-1133 (NSC836407), SN-38 (NSC673596), topotecan (NSC609699), etoposide (NSC141540), doxorubicin (NSC123127), gemcitabine (NSC613327), 5-fluorouracil (NSC19893), paclitaxel (NSC125973), vemurafenib (NSC761431), panobinostat (NSC761190), R-306465 (JNJ-16241199; NSC773264), adavosertib (NSC754352), TP-3654 (NSC805149), carboplatin (NSC241240), KSQ-4279 (NSC840948), and staurosporine (NSC755774) were obtained from the National Cancer Institute (NCI) Developmental Therapeutics Program Chemical Repository (34). The FDA-approved anticancer drug set is available from the NCI Developmental Therapeutics Program. […] The stock solutions were prepared in dimethyl sulfoxide (DMSO, Sigma-Aldrich, St. Louis, MO, cat. D2650) at 800-fold the tested concentration and stored at -70 degrees C prior to their use. All drugs and investigational agents were tested over a range starting from a high concentration at or near the clinical Cmax and decreasing in half-log increments. If the clinical Cmax for an agent had not been determined, the highest concentration tested was 10 microM.
2.3 Cell Culture. All cells were maintained in an incubator at 37 degrees C and 5% CO2 with 95% humidity. The PDC lines were cultured according to standard operating procedures established by the NCI PDMR. All PDCs were thawed and cultured in Matrigel-coated flasks prepared with a working solution of 1X Ham's F-12 nutrient mix, without supplementation (Invitrogen, cat. 11765054), 100 U/mL penicillin-streptomycin (Invitrogen, cat. 15140122), and 2.5% Matrigel (Corning Inc., cat. 354248) for the first three passages. The 857933-349-R-J2-PDC line was cultured in 6C/Colon 1B media, which includes advanced DMEM/F-12 (Thermo Fisher Scientific, cat. 12634028), 10 mM HEPES (Thermo Fisher Scientific, cat. 15630080), 1X GlutaMAX supplement (Thermo Fisher Scientific, cat. 35050061), 0.1 mg/mL primocin (InvivoGen, cat. ant-pm-2), 10% defined fetal bovine serum, heat inactivated (HyClone Laboratories Inc., cat. SH30070.03HI), 50% L-WRN conditioned media (ATCC, cat. CRL-3276), 1.25 mM N-Acetyl-L-cysteine (Sigma-Aldrich, cat. A9165), 10 mM nicotinamide (Sigma-Aldrich, cat. N0636), 1X B-27 supplement (Thermo Fisher Scientific, cat. 17504044), 1X N-2 supplement (Thermo Fisher Scientific, cat. 17502048), 10 microM Y-27632 dihydrochloride (Tocris Bioscience, cat. 1254), and 50 ng/mL human EGF recombinant protein (Thermo Fisher Scientific, cat. PHG0311). The 485176-168-R4-J1-PDC line was cultured in Panc media, which includes all 6C/Colon 1B media components plus 100 ng/mL human FGF-10 (Thermo Fisher Scientific, cat. 100-26), 500 nM SB-431542 (Selleckchem, cat. S1067), and gastrin (Tocris, cat. 3006).
[…]
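Note: spheroids exposed to compounds for 7 days.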
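Throughout, for viability, T/C: 100% = DMSO vehicle control viability.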

`COc1ncnc(C2CC2)c1-c1ncc2cnn(Cc3ccc(-c4nc(C(F)(F)F)cn4C(C)C)cc3)c2n1` was tested, and the viability, T/C (compound 0.0316 µM) was 104% and 85.1%, the viability, T/C (compound 0.1 µM) was 111% and 83.2% and the viability, T/C (compound 0.316 µM) was 101% and 92.7%. For the same molecule, the viability, T/C (compound 1 µM) was 119% and 75.2%, the viability, T/C (compound 3.16 µM) was 95.7% and 89.8% and the viability, T/C (compound 10 µM) was 83.2% and 81.7%. For the same molecule, the IC50 (curve of compound) was greater than 10000 nM.
For `C=CCn1c(=O)c2cnc(Nc3ccc(N4CCN(C)CC4)cc3)nc2n1-c1cccc(C(C)(C)O)n1`, the viability, T/C (compound 0.0316 µM) was 83% and 81.4%, the viability, T/C (compound 0.1 µM) was 107% and 106% and the viability, T/C (compound 0.316 µM) was 126% and 105%. For the same molecule, the viability, T/C (compound 1 µM) was 104% and 95.3%, the viability, T/C (compound 3.16 µM) was 83.3% and 94.8% and the viability, T/C (compound 10 µM) was 92.4% and 92.1%. The IC50 (curve of compound) was greater than 10000 nM.
With `COc1ccc([C@@H](O)c2cc(-c3ncnc4cc(N5CCOCC5)ccc34)c(F)cc2Cl)nn1` the viability, T/C (compound 0.0316 µM) was 103% and 120% and 90.1%, the viability, T/C (compound 0.1 µM) was 49.1% and 113% and 99.8% and the viability, T/C (compound 0.316 µM) was 76% and 95.2% and 69%. For the same molecule, the viability, T/C (compound 1 µM) was 94% and 100% and 121%, the viability, T/C (compound 3.16 µM) was 82.1% and 102% and 73.5% and the viability, T/C (compound 10 µM) was 66.8% and 87.3% and 67.6%. The IC50 (curve of compound) was greater than 10000 nM.
For `Cn1ncnc1[C@H]1c2n[nH]c(=O)c3cc(F)cc(c23)N[C@@H]1c1ccc(F)cc1` + Cc1cnc(CNC(=O)c2c(=O)c3ccc(N4CCCN(C)CC4)nc3n3c2sc2ccccc23)cn1, the IC50 (curve of first compound, second compound 0.0316 µM) was greater than 316 nM, the IC50 (curve of first compound, second compound 0.1 µM) was greater than 316 nM and the IC50 (curve of first compound, second compound 0.316 µM) was greater than 316 nM. The IC50 (curve of first compound, second compound 1 µM) was greater than 316 nM, the IC50 (curve of first compound, second compound 3.16 µM) was less than 0.999 nM and the IC50 (curve of first compound, second compound 10 µM) was less than 0.999 nM. For the same molecule, the viability, T/C (second compound 0.0316 µM, first compound 0.000999 µM) was 96.5%, the viability, T/C (second compound 0.0316 µM, first compound 0.00316 µM) was 116% and the viability, T/C (second compound 0.0316 µM, first compound 0.00999 µM) was 101%. The viability, T/C (second compound 0.0316 µM, first compound 0.0316 µM) was 72.1%, the viability, T/C (second compound 0.0316 µM, first compound 0.0999 µM) was 70.2% and the viability, T/C (second compound 0.0316 µM, first compound 0.316 µM) was 57.8%. It also gave a viability, T/C (second compound 0.1 µM, first compound 0.000999 µM) of 60.1%, a viability, T/C (second compound 0.1 µM, first compound 0.00316 µM) of 92.9% and a viability, T/C (second compound 0.1 µM, first compound 0.00999 µM) of 79.5%. For the same molecule, the viability, T/C (second compound 0.1 µM, first compound 0.0316 µM) was 79.5%, the viability, T/C (second compound 0.1 µM, first compound 0.0999 µM) was 56.8% and the viability, T/C (second compound 0.1 µM, first compound 0.316 µM) was 65.2%. It also gave a viability, T/C (second compound 0.316 µM, first compound 0.000999 µM) of 85.3%, a viability, T/C (second compound 0.316 µM, first compound 0.00316 µM) of 81.8% and a viability, T/C (second compound 0.316 µM, first compound 0.00999 µM) of 65.9%. For the same molecule, the viability, T/C (second compound 0.316 µM, first compound 0.0316 µM) was 72%, the viability, T/C (second compound 0.316 µM, first compound 0.0999 µM) was 61.5% and the viability, T/C (second compound 0.316 µM, first compound 0.316 µM) was 58.9%. The viability, T/C (second compound 1 µM, first compound 0.000999 µM) was 85.2%, the viability, T/C (second compound 1 µM, first compound 0.00316 µM) was 72.3% and the viability, T/C (second compound 1 µM, first compound 0.00999 µM) was 60.9%. It also gave a viability, T/C (second compound 1 µM, first compound 0.0316 µM) of 73.3%, a viability, T/C (second compound 1 µM, first compound 0.0999 µM) of 69.9% and a viability, T/C (second compound 1 µM, first compound 0.316 µM) of 72.7%. The viability, T/C (second compound 3.16 µM, first compound 0.000999 µM) was 47.3%, the viability, T/C (second compound 3.16 µM, first compound 0.00316 µM) was 48.7% and the viability, T/C (second compound 3.16 µM, first compound 0.00999 µM) was 50.3%. For the same molecule, the viability, T/C (second compound 3.16 µM, first compound 0.0316 µM) was 38.7%, the viability, T/C (second compound 3.16 µM, first compound 0.0999 µM) was 43.1% and the viability, T/C (second compound 3.16 µM, first compound 0.316 µM) was 52.3%. It also gave a viability, T/C (second compound 10 µM, first compound 0.000999 µM) of 26.9%, a viability, T/C (second compound 10 µM, first compound 0.00316 µM) of 54% and a viability, T/C (second compound 10 µM, first compound 0.00999 µM) of 44.4%. The viability, T/C (second compound 10 µM, first compound 0.0316 µM) was 50.4%, the viability, T/C (second compound 10 µM, first compound 0.0999 µM) was 49.1% and the viability, T/C (second compound 10 µM, first compound 0.316 µM) was 72%.
